Measured values taken from patent US20230265151A1, “GIP/GLP1 CO-AGONIST COMPOUNDS” (priority 2020, published 2023).
Like-named read-outs stand apart in the source and are kept apart here. *1 amine or outer side, *2 acyl side, *3 side chain or, on linkers, in order; H or OH if unused. Where a SMILES comes first, the peptide text is derived from it. Side-chain parts run from the residue outwards. [ ]: non-standard residue; d: D form. The star is where a group is joined. αMePhe(2-F) = C[C@](N)(Cc1ccccc1F)C(=O)O; γGlu = O=C(O)[C@H](CCC(=O)[*:2])N[*:1]; C14 diacid = O=C(O)CCCCCCCCCCCCC(=O)*; αMeY = C[C@](N)(Cc1ccc(O)cc1)C(=O)O; αMeL = CC(C)C[C@](C)(N)C(=O)O; Orn = NCCC[C@H](N)C(=O)O; AEEA = NCCOCCOCC(=O)O; Aib = CC(C)(N)C(=O)O

Columns and labels:
Assay type in all cases: cell-based
hGCGR = biological target: T1, hGCGR (Homo sapiens, UniProt P47871); experiment: Functional cAMP formation (HTRF) in HEK-293 clonal cells expressing hGCGR, 0.1% bovine casein, without or with 1.0% human serum albumin; details: cAMP, 37° C.
T1 construct: expressed in transfected cells
T1 sequence (P47871 26-477): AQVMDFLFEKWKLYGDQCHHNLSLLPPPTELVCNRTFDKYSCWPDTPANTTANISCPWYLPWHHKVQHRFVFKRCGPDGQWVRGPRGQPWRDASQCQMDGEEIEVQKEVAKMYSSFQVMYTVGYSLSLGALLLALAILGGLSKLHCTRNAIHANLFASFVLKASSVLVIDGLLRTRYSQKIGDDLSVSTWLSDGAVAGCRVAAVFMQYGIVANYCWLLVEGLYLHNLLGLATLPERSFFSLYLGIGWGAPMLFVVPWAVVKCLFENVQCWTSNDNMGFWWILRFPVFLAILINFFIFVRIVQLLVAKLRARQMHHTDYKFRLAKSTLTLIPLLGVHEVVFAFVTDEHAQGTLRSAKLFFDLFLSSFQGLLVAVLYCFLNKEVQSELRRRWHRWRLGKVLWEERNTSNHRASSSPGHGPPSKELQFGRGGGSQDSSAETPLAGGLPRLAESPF
In short: (§1)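 Readings of the HTRF 665/620 nm ratio, which falls as cAMP rises, were converted to nM cAMP using a standard curve after 30 min peptide exposure at 37° C.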

hGIPR = biological target: T2, hGIPR (Homo sapiens, UniProt P48546); experiment: Functional cAMP formation (HTRF) in HEK-293 clonal cells expressing hGIPR, 0.1% bovine casein, without or with 1.0% human serum albumin; details: for Emax: percent of maximal response to GIP(1-42)NH2; for EC50: cAMP
T2 construct: expressed in transfected cells
T2 sequence (P48546 22-466): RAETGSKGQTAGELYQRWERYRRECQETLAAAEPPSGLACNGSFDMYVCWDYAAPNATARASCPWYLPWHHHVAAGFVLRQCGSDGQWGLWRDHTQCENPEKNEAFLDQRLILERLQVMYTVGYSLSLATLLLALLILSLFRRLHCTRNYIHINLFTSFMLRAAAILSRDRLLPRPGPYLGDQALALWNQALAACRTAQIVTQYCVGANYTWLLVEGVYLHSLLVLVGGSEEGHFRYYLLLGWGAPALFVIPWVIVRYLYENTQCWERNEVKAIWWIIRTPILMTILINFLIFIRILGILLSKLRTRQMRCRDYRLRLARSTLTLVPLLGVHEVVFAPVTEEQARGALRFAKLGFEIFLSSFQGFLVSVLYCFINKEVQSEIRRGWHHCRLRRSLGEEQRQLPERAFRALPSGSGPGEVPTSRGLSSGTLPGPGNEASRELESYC
In short: as §1

hGLP-1R = hGLP-1R (Homo sapiens, UniProt P43220); experiment: Functional cAMP formation (HTRF) in HEK-293 clonal cells expressing hGLP-1R, 0.1% bovine casein, without or with 1.0% human serum albumin; parameters: expressed in transfected cells; details: for Emax: percent of maximal response to GLP-1(7-36)NH2; for EC50: cAMP
Chain of hGLP-1R (P43220 24-463): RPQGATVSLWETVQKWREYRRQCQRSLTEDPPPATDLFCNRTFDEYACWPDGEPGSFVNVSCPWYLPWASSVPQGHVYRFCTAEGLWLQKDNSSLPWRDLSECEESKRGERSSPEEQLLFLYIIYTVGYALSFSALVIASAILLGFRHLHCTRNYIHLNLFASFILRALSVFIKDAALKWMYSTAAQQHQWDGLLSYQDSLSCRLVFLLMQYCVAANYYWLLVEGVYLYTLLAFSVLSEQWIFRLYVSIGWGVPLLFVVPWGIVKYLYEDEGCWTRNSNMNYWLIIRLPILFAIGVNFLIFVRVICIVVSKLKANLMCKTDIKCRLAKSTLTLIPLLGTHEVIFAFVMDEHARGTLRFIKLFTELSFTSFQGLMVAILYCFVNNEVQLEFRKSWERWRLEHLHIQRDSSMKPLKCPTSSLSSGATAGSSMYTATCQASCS
In short: as §1

[1] = 0.1% bovine casein (no human serum albumin), geometric mean, read-out: hGCGR EC50, nM (SEM, n)
[2] = 0.1% bovine casein and 1.0% human serum albumin, geometric mean (SEM, n), read-out: hGCGR EC50, nM (SEM, n)
[3] = HEK293, cAMP, 37° C., 0.1% bovine casein and 1.0% human serum albumin, read-out: hGIPR Emax, % ± SEM
[4] = 37° C., 0.1% bovine casein (no human serum albumin), geometric mean, read-out: hGIPR EC50, nM (SEM, n)
[5] = HEK293, cAMP, 37° C., 0.1% bovine casein, arithmetic mean, read-out: hGLP-1R Emax, % ± SEM
[6] = 37° C., 0.1% bovine casein (no human serum albumin), geometric mean, read-out: hGLP-1R EC50, nM (SEM, n)
[7] = hGCGR EC50, nM (SEM, n), 0.1% bovine casein (no human serum albumin), geometric mean
[8] = hGCGR EC50, nM (SEM, n), 0.1% bovine casein and 1.0% human serum albumin, geometric mean (SEM, n)
[9] = HEK293, read-out: hGIPR Emax, % ± SEM, cAMP, 37° C., 0.1% bovine casein and 1.0% human serum albumin
[10] = HEK293, read-out: hGIPR Emax, % ± SEM, cAMP, 37° C., 0.1% bovine casein, arithmetic mean
[11] = hGIPR EC50, nM (SEM, n), 37° C., 0.1% bovine casein (no human serum albumin), geometric mean
[12] = HEK293, read-out: hGLP-1R Emax, % ± SEM, cAMP, 37° C., 0.1% bovine casein, arithmetic mean
[13] = hGLP-1R EC50, nM (SEM, n), 37° C., 0.1% bovine casein (no human serum albumin), geometric mean

Row | SMILES | EC50 (hGCGR; [1]) [nM] | EC50 (hGCGR; [2]) [nM] | Emax (hGIPR; [3]) [%] | Emax (hGIPR; HEK293, cAMP, 37° C., 0.1% bovine casein, arithmetic mean, read-out: hGIPR Emax, % ± SEM) [%] | EC50 (hGIPR; [4]) [nM] | EC50 (hGIPR; 37° C., 0.1% bovine casein and 1.0% human serum albumin, geometric mean (SEM, n), read-out: hGIPR EC50, nM (SEM, n)) [nM] | Emax (hGLP-1R; [5]) [%] | EC50 (hGLP-1R; [6]) [nM] | Emax (hGLP-1R; HEK293, cAMP, 37° C., 0.1% bovine casein and 1.0% human serum albumin, read-out: hGLP-1R Emax, % ± SEM) [%] | EC50 (hGLP-1R; 37° C., 0.1% bovine casein and 1.0% human serum albumin, geometric mean (SEM, n), read-out: hGLP-1R EC50, nM (SEM, n)) [nM] | EC50 (hGCGR; [7]) [nM] | EC50 (hGCGR; [8]) [nM] | Emax (hGIPR; [9]) [%] | Emax (hGIPR; [10]) [%] | EC50 (hGIPR; [11]) [nM] | Emax (hGLP-1R; [12]) [%] | EC50 (hGLP-1R; [13]) [nM] | EC50 (hGLP-1R; hGLP-1R EC50, nM (SEM, n), 37° C., 0.1% bovine casein and 1.0% human serum albumin, geometric mean (SEM, n)) [nM]
1 | CC[C@H](C)[C@H](NC(=O)[C@H](CC(C)C)NC(=O)[C@](C)(Cc1ccc(O)cc1)NC(=O)[C@@H](CCC(=O)O)NC(=O)[C@@H](NC(=O)[C@H](Cc1ccccc1)NC(=O)[C@H](CCC(=O)O)NC(=O)C(C)(C)NC(=O)[C@H](CCC(N)=O)NC(=O)[C@H](C)NC(=O)[C@H](CCCCNC(=O)COCCOCCNC(=O)COCCOCCNC(=O)CCCCCCCCCCCCC(=O)O)NC(=O)[C@H](CCCN)NC(=O)[C@H](CC(=O)O)NC(=O)[C@H](CC(C)C)NC(=O)[C@](C)(CC(C)C)NC(=O)[C@@H](NC(=O)C(C)(C)NC(=O)[C@@H](NC(=O)[C@H](CC(=O)O)NC(=O)[C@H](CO)NC(=O)[C@@H](NC(=O)[C@](C)(Cc1ccccc1F)NC(=O)[C@@H](NC(=O)CNC(=O)[C@H](CCC(=O)O)NC(=O)C(C)(C)NC(=O)[C@@H](N)Cc1ccc(O)cc1)[C@@H](C)O)[C@@H](C)O)C(C)C)[C@@H](C)CC)[C@@H](C)CC)C(=O)N[C@@H](CCCCNC(=O)COCCOCCNC(=O)COCCOCCNC(=O)CCCCCCCCCCCCC(=O)O)C(=O)NCC(=O)NCC(=O)N1CCC[C@H]1C(=O)N[C@@H](CO)C(=O)N[C@@H](CO)C(=O)NCC(=O)N[C@@H](C)C(=O)N1CCC[C@H]1C(=O)N1CCC[C@H]1C(=O)N1CCC[C@H]1C(=O)N[C@@H](CO)C(N)=O [Example 389] | > 9950 | > 9950 | 82 | 94.6 | 0.0178 | 1.5 | 92.4 | 0.19 | – | – | – | – | – | – | – | – | – | –
2 | CC[C@H](C)[C@H](NC(=O)[C@H](CC(C)C)NC(=O)[C@](C)(Cc1ccc(O)cc1)NC(=O)[C@H](CCCCNC(=O)COCCOCCNC(=O)COCCOCCNC(=O)CC[C@H](NC(=O)CCCCCCCCCCCCC(=O)O)C(=O)O)NC(=O)[C@@H](NC(=O)[C@H](Cc1ccccc1)NC(=O)[C@H](CCC(=O)O)NC(=O)C(C)(C)NC(=O)[C@H](CCC(N)=O)NC(=O)[C@H](C)NC(=O)[C@H](CCC(N)=O)NC(=O)[C@H](CCCN)NC(=O)[C@H](CC(=O)O)NC(=O)[C@H](CC(C)C)NC(=O)[C@](C)(CC(C)C)NC(=O)[C@@H](NC(=O)C(C)(C)NC(=O)[C@@H](NC(=O)[C@H](CC(=O)O)NC(=O)[C@H](CO)NC(=O)[C@@H](NC(=O)[C@](C)(Cc1ccccc1F)NC(=O)[C@@H](NC(=O)CNC(=O)[C@H](CCC(=O)O)NC(=O)C(C)(C)NC(=O)[C@@H](N)Cc1ccc(O)cc1)[C@@H](C)O)[C@@H](C)O)C(C)C)[C@@H](C)CC)[C@@H](C)CC)C(=O)N[C@@H](CCCCNC(=O)COCCOCCNC(=O)COCCOCCNC(=O)CC[C@H](NC(=O)CCCCCCCCCCCCC(=O)O)C(=O)O)C(=O)NCC(=O)NCC(=O)N1CCC[C@H]1C(=O)N[C@@H](CO)C(=O)N[C@@H](CO)C(=O)NCC(=O)N[C@@H](C)C(=O)N1CCC[C@H]1C(=O)N1CCC[C@H]1C(=O)N1CCC[C@H]1C(=O)N[C@@H](CO)C(N)=O [Example 390] (H-Y[Aib]EGT[αMePhe(2-F)]TSDV[Aib]I[αMeL]LD[Orn]QAQ[Aib]EFIK([AEEA-AEEA-γGlu-C14 diacid])[αMeY]LIK([AEEA-AEEA-γGlu-C14 diacid])GGPSSGAPPPS-NH2) | > 9950 | > 9950 | 89.3 | – | 0.0187 | – | 97.7 | 0.209 | 94.6 | 24.3 | – | – | – | – | – | – | – | –
3 | CC[C@H](C)[C@H](NC(=O)[C@H](CC(C)C)NC(=O)[C@](C)(Cc1ccc(O)cc1)NC(=O)[C@@H](CCC(=O)O)NC(=O)[C@@H](NC(=O)[C@H](Cc1ccccc1)NC(=O)[C@H](CCCCNC(=O)COCCOCCNC(=O)COCCOCCNC(=O)CCCCCCCCCOc1ccc(C(=O)O)cc1)NC(=O)C(C)(C)NC(=O)[C@H](CCC(N)=O)NC(=O)[C@H](C)NC(=O)[C@H](CCCCNC(=O)COCCOCCNC(=O)COCCOCCNC(=O)CCCCCCCCCOc1ccc(C(=O)O)cc1)NC(=O)[C@H](CCCN)NC(=O)[C@H](CC(=O)O)NC(=O)[C@H](CC(C)C)NC(=O)[C@](C)(CC(C)C)NC(=O)[C@@H](NC(=O)C(C)(C)NC(=O)[C@H](Cc1ccncc1)NC(=O)[C@H](CC(=O)O)NC(=O)[C@H](CO)NC(=O)[C@@H](NC(=O)[C@](C)(Cc1ccccc1F)NC(=O)[C@@H](NC(=O)CNC(=O)[C@H](CCC(=O)O)NC(=O)C(C)(C)NC(=O)[C@@H](N)Cc1ccc(O)cc1)[C@@H](C)O)[C@@H](C)O)[C@@H](C)CC)[C@@H](C)CC)C(=O)N[C@@H](CCC(=O)O)C(=O)NCC(=O)NCC(=O)N1CCC[C@H]1C(=O)N[C@@H](CO)C(=O)N[C@@H](CO)C(=O)NCC(=O)N[C@@H](C)C(=O)N1CCC[C@H]1C(=O)N1CCC[C@H]1C(=O)N1CCC[C@H]1C(=O)N[C@@H](CO)C(N)=O [Example 392] | – | – | – | – | – | – | – | – | – | – | > 9950 | > 9950 | 85.7 | 94.4 | 0.0107 | 97.9 | 0.521 | –
4 | CC[C@H](C)[C@H](NC(=O)[C@H](CC(C)C)NC(=O)[C@](C)(Cc1ccc(O)cc1)NC(=O)[C@@H](CCC(=O)O)NC(=O)[C@@H](NC(=O)[C@H](Cc1ccccc1)NC(=O)[C@H](CCCCNC(=O)COCCOCCNC(=O)COCCOCCNC(=O)CCCCCCCCCOc1ccc(C(=O)O)cc1)NC(=O)C(C)(C)NC(=O)[C@H](CCC(N)=O)NC(=O)[C@H](C)NC(=O)[C@H](CCCCNC(=O)COCCOCCNC(=O)COCCOCCNC(=O)CCCCCCCCCOc1ccc(C(=O)O)cc1)NC(=O)[C@H](CCCN)NC(=O)[C@H](CC(=O)O)NC(=O)[C@H](CC(C)C)NC(=O)[C@](C)(CC(C)C)NC(=O)[C@@H](NC(=O)C(C)(C)NC(=O)[C@H](Cc1ccc(O)cc1)NC(=O)[C@H](CC(=O)O)NC(=O)[C@H](CO)NC(=O)[C@@H](NC(=O)[C@](C)(Cc1ccccc1F)NC(=O)[C@@H](NC(=O)CNC(=O)[C@H](CCC(=O)O)NC(=O)C(C)(C)NC(=O)[C@@H](N)Cc1ccc(O)cc1)[C@@H](C)O)[C@@H](C)O)[C@@H](C)CC)[C@@H](C)CC)C(=O)N[C@@H](CCC(=O)O)C(=O)NCC(=O)NCC(=O)N1CCC[C@H]1C(=O)N[C@@H](CO)C(=O)N[C@@H](CO)C(=O)NCC(=O)N[C@@H](C)C(=O)N1CCC[C@H]1C(=O)N1CCC[C@H]1C(=O)N1CCC[C@H]1C(=O)N[C@@H](CO)C(N)=O [Example 393] | – | – | – | – | – | – | – | – | – | – | > 9950 | > 9950 | 66.7 | 94.3 | 0.0115 | 96.8 | 0.372 | 9.18
